The subject of series [1] is malignant cells of hematopoietic origin including AML. The conditions noted are these: cited from earlier work.
The next series relates to human AML xenografts. The conditions noted are these: subcutaneous injections; cited from earlier work.
For series [2], the system named is blast cells in peripheral blood (PB) of AML patients. Description: Phase 1/2 study: mobilization of blast cells to peripheral blood after BL-8040 in relapsed or refractory AML patients. The class given is in vivo, human. The procedure: In an open-label, single arm, phase 1/2 study, patients diagnosed with AML with relapsed or refractory disease received a once daily subcutaneous (SC) dose of BL-8040 as monotherapy on days 1-2 followed by the same dose of BL-8040 plus Ara-C (1.5 g/m2 for patients ≥60; 3 g/m2 for patients <60) on days 3-7. Six dose levels of BL-8040 (0.5-2.0 mg/kg) were tested in the dose escalation phase with 1.5 mg/kg selected for the expansion phase. Extensive pharmacodynamics (PD) parameters such as the extent of mobilization were assessed during the study. Clinical response to treatment was determined by BM biopsy on day 30.
Measuring Blast-Cell Density in Peripheral Blood (PB) and Bone Marrow (BM)
Bone marrow blast-cell counts were performed using procedures essentially as described by Lee et al. (Int. Jnl. Lab. Hem. 30: 349-364, 2008).
Peripheral blast-cell counts were performed using procedures essentially as described by O'Connor, B. H., A Color Atlas and Instructions Manual of Peripheral Cell Morphology, Lippincot Williams, 1984.
Clinical responses to […] treatment were determined according to the standards of the international working group for AML (Cheson et al., J. Clin. Oncol. 21: 4642-4649, 2003; Döhner et al., Blood 115: 453-474, 2010; and de Greef et al., British Journal of Hematology 128: 184-91, 2005), which are summarized in Table 1 below.

Another series relates to HIV-1 (X4-HIV-1). The conditions noted are these: through specific binding to CXCR4; cited from earlier work.

These results are taken from patent publication US10993985B2, “Methods of treating acute myeloid leukemia” (BioLineRx Ltd., priority 2016, dated 2021).

Positions of bridges follow the written chain, without caps; N, C: chain ends. Non-standard residues stand in square brackets, D forms with d. 2Nal = N[C@@H](Cc1ccc2ccccc2c1)C(=O)O; Cit = NC(=O)NCCC[C@H](N)C(=O)O

As to “4F-benzoyl-Arg-Arg-Nal-Cys-Tyr-Cit-Lys-DLys-Pro-Tyr-Arg-Cit-Cys-Arg-NH2 [BL-8040]”, in series [1], the “cytotoxicity toward malignant cells of hematopoietic origin including AML” value is recorded as “CXCR4-dependent preferential cytotoxicity”. The “growth of human AML xenografts” value in the series with human AML xenografts is listed as “significantly reduced”. Moreover, the “ratio of PB blast cell density after treatment to initial density prior to treatment” value in series [2] (day 2 following treatment with BL-8040, non-responsive patients (SD and PD)) is “no increase was observed”; in series [2] (day 2 following treatment with BL-8040, responsive patients, CR, prior to cytarabine), 2.1 fold; in series [2] (day 2 following treatment with BL-8040, responsive patients, CRi, prior to cytarabine), 4.0 fold; in series [2] (day 3, 8 hr following day 3 injection (after initiation of cytarabine), non-responsive patients (SD and PD)), “no significant increase was observed”; in series [2] (day 3, 8 hr following day 3 injection (after initiation of cytarabine), responsive patients, CR) it was 7.0 fold; in series [2] (day 3, 8 hr following day 3 injection (after initiation of cytarabine), responsive patients, CRi), 4.2 fold. Further, the “ratio of PB blast cell density after treatment to initial density prior to treatment” value in series [2] (day 3 following initial treatment with BL-8040, non-responsive patients (SD and PD)) is reported as “no significant increase was observed”; in series [2] (day 3 following initial treatment with BL-8040, responsive patients, CR, prior to cytarabine) it was 2.1 fold; in series [2] (day 3 following initial treatment with BL-8040, responsive patients, CRi, prior to cytarabine), 2.9 fold. Also, the “increase of PB blast-cell density versus baseline” value in series [2] (non-responsive patients, after 2 or 3 days following first administration of BL-8040) was “did not increase”; in series [2] (responsive patients (CR, CRi or CRp), after 2 days following first administration of BL-8040), 3.7 fold; in series [2] (responsive patients (CR, CRi or CRp), after 3 days following first administration of BL-8040) it was 3.8 fold.
With “H-Arg-Arg-Nal-Cys-Tyr-Arg-Lys-DLys-Pro-Tyr-Arg-Cit-Cys-Arg-OH (H-RR[2Nal]CYRK[dK]PYR[Cit]CR-OH; disulfide 4-13) [Analog T-140]”, the “HIV-1 (X4-HIV-1) entry to T cells” value in the series with HIV-1 (X4-HIV-1) is reported as “suppress”.
